From patent publication US20240317721A1, “PYRAZOLYL DERIVATIVES AS INHIBITORS OF THE KRAS MUTANT PROTEIN” (NOVARTIS AG, priority 2021, published 2024)

Target: KRasG12C (M1-K169, biotinylated on the N-terminus) (Homo sapiens (Human), UniProt P01116, G12C)
Experiment: Covalent competition assay: scintillation proximity assay (SPA) quantifying covalent modification of KRASG12C
Format: binding
Details: competition with radiolabeled covalent probe (Compound B/Compound A), 2 hours incubation, 10 nM KRasG12C
In short: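 Scintillation proximity readout after streptavidin bead capture (30 min) of biotinylated KRasG12C(M1-K169):GDP, 10 nM final, which was covalently labelled over 2 h by 25 nM radio-probe plus 475 nM cold probe unless blocked by compound.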

IC50 [nM] | SMILES
> 5000 | Cc1cc2[nH]ncc2c(-c2c(N3CCN(C4COC4)CC34CCC4)nn(C3CC4(C3)CN(C(=O)/C=C/CF)C4)c2C)c1Cl (single isomer, unassigned) [Example 113a, (E)-1-(6-(4-(5-chloro-6-methyl-1H-indazol-4-yl)-5-methyl-3-(8-(oxetan-3-yl)-5,8-diazaspiro[3.5]nonan-5-yl)-1H-pyrazol-1-yl)-2-azaspiro[3.3]heptan-2-yl)-4-fluorobut-2-en-1-one]
105 | Cc1cc2[nH]ncc2c(-c2c(N3CCN(C4COC4)CC34CCC4)nn(C3CC4(C3)CN(C(=O)/C=C/CF)C4)c2C)c1Cl (single isomer, unassigned) [Example 113b, (E)-1-(6-(4-(5-chloro-6-methyl-1H-indazol-4-yl)-5-methyl-3-(8-(oxetan-3-yl)-5,8-diazaspiro[3.5]nonan-5-yl)-1H-pyrazol-1-yl)-2-azaspiro[3.3]heptan-2-yl)-4-fluorobut-2-en-1-one]
7 | C=CC(=O)N1CC2(CC(n3nc(N4CCN(C5COC5)CC45CCC5)c(-c4c(Cl)c(C)cc5[nH]nc(N)c45)c3C)C2)C1 (single isomer, unassigned) [Example 114a, 1-(6-(4-(3-amino-5-chloro-6-methyl-1H-indazol-4-yl)-5-methyl-3-(8-(oxetan-3-yl)-5,8-diazaspiro[3.5]nonan-5-yl)-1H-pyrazol-1-yl)-2-azaspiro[3.3]heptan-2-yl)prop-2-en-1-one]
337 | C=CC(=O)N1CC2(CC(n3nc(N4CCN(C5COC5)CC45CCC5)c(-c4c(Cl)c(C)cc5[nH]nc(N)c45)c3C)C2)C1 (single isomer, unassigned) [Example 114b, 1-(6-(4-(3-amino-5-chloro-6-methyl-1H-indazol-4-yl)-5-methyl-3-(8-(oxetan-3-yl)-5,8-diazaspiro[3.5]nonan-5-yl)-1H-pyrazol-1-yl)-2-azaspiro[3.3]heptan-2-yl)prop-2-en-1-one]
7 | C=CC(=O)N1CC2(CC(n3nc(N4CCC(N(C)C5COC5)CC45CCC5)c(-c4c(Cl)c(C)cc5[nH]nc(N)c45)c3C)C2)C1 (single isomer, unassigned) [Example 115a, 1-(6-(4-(3-amino-5-chloro-6-methyl-1H-indazol-4-yl)-5-methyl-3-(8-(methyl(oxetan-3-yl)amino)-5-azaspiro[3.5]nonan-5-yl)-1H-pyrazol-1-yl)-2-azaspiro[3.3]heptan-2-yl)prop-2-en-1-one]
246 | C=CC(=O)N1CC2(CC(n3nc(N4CCC(N(C)C5COC5)CC45CCC5)c(-c4c(Cl)c(C)cc5[nH]nc(N)c45)c3C)C2)C1 (single isomer, unassigned) [Example 115b, 1-(6-(4-(3-amino-5-chloro-6-methyl-1H-indazol-4-yl)-5-methyl-3-(8-(methyl(oxetan-3-yl)amino)-5-azaspiro[3.5]nonan-5-yl)-1H-pyrazol-1-yl)-2-azaspiro[3.3]heptan-2-yl)prop-2-en-1-one]
205 | C=CC(=O)N1CC2(CC(n3nc(N4CCC(N(C)C5COC5)CC45CCC5)c(-c4c(Cl)c(C)cc5[nH]nc(N)c45)c3C)C2)C1 (single isomer, unassigned) [Example 116a, 1-(6-(4-(3-amino-5-chloro-6-methyl-1H-indazol-4-yl)-5-methyl-3-(8-(methyl(oxetan-3-yl)amino)-5-azaspiro[3.5]nonan-5-yl)-1H-pyrazol-1-yl)-2-azaspiro[3.3]heptan-2-yl)prop-2-en-1-one]
1900 | C=CC(=O)N1CC2(CC(n3nc(N4CCC(N(C)C5COC5)CC45CCC5)c(-c4c(Cl)c(C)cc5[nH]nc(N)c45)c3C)C2)C1 (single isomer, unassigned) [Example 116b, 1-(6-(4-(3-amino-5-chloro-6-methyl-1H-indazol-4-yl)-5-methyl-3-(8-(methyl(oxetan-3-yl)amino)-5-azaspiro[3.5]nonan-5-yl)-1H-pyrazol-1-yl)-2-azaspiro[3.3]heptan-2-yl)prop-2-en-1-one]
9 | C=CC(=O)N1CC2(CC(n3nc(N4CCN(CC(C)(C)O)CC45CCC5)c(-c4c(Cl)c(C)cc5[nH]nc(N)c45)c3C)C2)C1 (single isomer, unassigned) [Example 117a, 1-(6-(4-(3-amino-5-chloro-6-methyl-1H-indazol-4-yl)-3-(8-(2-hydroxy-2-methylpropyl)-5,8-diazaspiro[3.5]nonan-5-yl)-5-methyl-1H-pyrazol-1-yl)-2-azaspiro[3.3]heptan-2-yl)prop-2-en-1-one]
1600 | C=CC(=O)N1CC2(CC(n3nc(N4CCN(CC(C)(C)O)CC45CCC5)c(-c4c(Cl)c(C)cc5[nH]nc(N)c45)c3C)C2)C1 (single isomer, unassigned) [Example 117b, 1-(6-(4-(3-amino-5-chloro-6-methyl-1H-indazol-4-yl)-3-(8-(2-hydroxy-2-methylpropyl)-5,8-diazaspiro[3.5]nonan-5-yl)-5-methyl-1H-pyrazol-1-yl)-2-azaspiro[3.3]heptan-2-yl)prop-2-en-1-one]
15 | C=CC(=O)N1CC2(CC(n3nc(N4CCN(C[C@@H]5COCCO5)C[C@]4(C)COC)c(-c4c(Cl)c(C)cc5[nH]nc(N)c45)c3C)C2)C1 (single isomer, unassigned) [Example 118a]
818 | C=CC(=O)N1CC2(CC(n3nc(N4CCN(C[C@@H]5COCCO5)C[C@]4(C)COC)c(-c4c(Cl)c(C)cc5[nH]nc(N)c45)c3C)C2)C1 (single isomer, unassigned) [Example 118b]
2800 | C=CC(=O)N1CC2(CC(n3nc(N4CCC(N5CC6COCC(C5)O6)CC4(C)C)c(-c4c(Cl)c(C)cc5[nH]ncc45)c3C)C2)C1 (single isomer, unassigned) [Example 119a, 1-(6-(3-(4-(3,9-dioxa-7-azabicyclo[3.3.1]nonan-7-yl)-2,2-dimethylpiperidin-1-yl)-4-(5-chloro-6-methyl-1H-indazol-4-yl)-5-methyl-1H-pyrazol-1-yl)-2-azaspiro[3.3]heptan-2-yl)prop-2-en-1-one]
36 | C=CC(=O)N1CC2(CC(n3nc(N4CCC(N5CC6COCC(C5)O6)CC4(C)C)c(-c4c(Cl)c(C)cc5[nH]ncc45)c3C)C2)C1 (single isomer, unassigned) [Example 119b, 1-(6-(3-(4-(3,9-dioxa-7-azabicyclo[3.3.1]nonan-7-yl)-2,2-dimethylpiperidin-1-yl)-4-(5-chloro-6-methyl-1H-indazol-4-yl)-5-methyl-1H-pyrazol-1-yl)-2-azaspiro[3.3]heptan-2-yl)prop-2-en-1-one]
> 5000 | CC[C@@]1(C)CN(C[C@@H]2COCCO2)CCN1c1nn(C2CC3(C2)CN(C(=O)/C=C/COC)C3)c(C)c1-c1c(Cl)c(C)cc2[nH]ncc12 (single isomer, unassigned) [Example 120a]
140 | CC[C@@]1(C)CN(C[C@@H]2COCCO2)CCN1c1nn(C2CC3(C2)CN(C(=O)/C=C/COC)C3)c(C)c1-c1c(Cl)c(C)cc2[nH]ncc12 (single isomer, unassigned) [Example 120b]
> 5000 | C=CC(=O)N1CC2(CC(n3nc(N4CCN(C(=O)OCCOC)CC45CCC5)c(-c4c(Cl)c(C)cc5[nH]ncc45)c3C)C2)C1 (single isomer, unassigned) [Example 122a, 2-methoxyethyl 5-(1-(2-acryloyl-2-azaspiro[3.3]heptan-6-yl)-4-(5-chloro-6-methyl-1H-indazol-4-yl)-5-methyl-1H-pyrazol-3-yl)-5,8-diazaspiro[3.5]nonane-8-carboxylate]
16 | C=CC(=O)N1CC2(CC(n3nc(N4CCN(C(=O)OCCOC)CC45CCC5)c(-c4c(Cl)c(C)cc5[nH]ncc45)c3C)C2)C1 (single isomer, unassigned) [Example 122b, 2-methoxyethyl 5-(1-(2-acryloyl-2-azaspiro[3.3]heptan-6-yl)-4-(5-chloro-6-methyl-1H-indazol-4-yl)-5-methyl-1H-pyrazol-3-yl)-5,8-diazaspiro[3.5]nonane-8-carboxylate]
> 5000 | C=CC(=O)N1CC2(CC(n3nc(N4CCN(C(=O)COC)CC45CCC5)c(-c4c(Cl)c(C)cc5[nH]ncc45)c3C)C2)C1 (single isomer, unassigned) [Example 123a, 1-(6-(4-(5-chloro-6-methyl-1H-indazol-4-yl)-3-(8-(2-methoxyacetyl)-5,8-diazaspiro[3.5]nonan-5-yl)-5-methyl-1H-pyrazol-1-yl)-2-azaspiro[3.3]heptan-2-yl)prop-2-en-1-one]
21 | C=CC(=O)N1CC2(CC(n3nc(N4CCN(C(=O)COC)CC45CCC5)c(-c4c(Cl)c(C)cc5[nH]ncc45)c3C)C2)C1 (single isomer, unassigned) [Example 123b, 1-(6-(4-(5-chloro-6-methyl-1H-indazol-4-yl)-3-(8-(2-methoxyacetyl)-5,8-diazaspiro[3.5]nonan-5-yl)-5-methyl-1H-pyrazol-1-yl)-2-azaspiro[3.3]heptan-2-yl)prop-2-en-1-one]
> 5000 | C=CC(=O)N1CC2(CC(n3nc(N4CCN(C(=O)[C@@H]5CCCO5)CC45CCC5)c(-c4c(Cl)c(C)cc5[nH]ncc45)c3C)C2)C1 (single isomer, unassigned) [Example 124a]
20 | C=CC(=O)N1CC2(CC(n3nc(N4CCN(C(=O)[C@@H]5CCCO5)CC45CCC5)c(-c4c(Cl)c(C)cc5[nH]ncc45)c3C)C2)C1 (single isomer, unassigned) [Example 124b]
2200 | C=CC(=O)N1CC2(CC(n3nc(N4CCN(C(=O)OC)CC4(C)C)c(-c4c(Cl)c(C)cc5[nH]ncc45)c3C)C2)C1 (single isomer, unassigned) [Example 125a, methyl 4-(1-(2-acryloyl-2-azaspiro[3.3]heptan-6-yl)-4-(5-chloro-6-methyl-1H-indazol-4-yl)-5-methyl-1H-pyrazol-3-yl)-3,3-dimethylpiperazine-1-carboxylate]
